In paper PMC4519324, “Substrate Specificity, Inhibitor Selectivity and Structure-Function Relationships of Aldo-Keto Reductase 1B15: A Novel Human Retinaldehyde Reductase” (PLoS ONE, 2015):
Read-outs that look alike come from different tables or passages of the source.

Legend:
CCC(=O)CC(=O)CC = assay: Spectrophotometric activity assay (NADPH decrease at 340 nm), substrate kinetics; assay type: biochemical, human; details: other: AKR1B1, pH 7.0, 25.0 °C
Protocol: (§1) Activities were determined in 100 mM sodium phosphate, pH 7.0, at 25°C, using 0.2 mM NADPH in 0.2-cm path length cuvettes, with freshly prepared substrate solutions. One unit of activity is defined as the amount of enzyme required to transform 1 μmol of substrate per min at 25°C.
(§2) All compounds tested as inhibitors were dissolved in DMSO and assayed in a final concentration of 0.1% (v/v) DMSO using 6 mM D,L-glyceraldehyde as a substrate. Kinetic constant and IC50 (compound concentration that inhibits enzymatic activity by 50%) values were calculated by fitting the initial rates to the appropriate equation using Grafit 5.0 (Eritacus Software) and values were given as the mean ± standard error of three experiments. Standard error values were less than 20% of the mean values.

CC(=O)CC(C)=O = assay: as above; assay type: biochemical, human; details: other: AKR1B1, pH 7.0, 25.0 °C
Protocol: as §1, §2

CC(C)=CCC/C(C)=C/C=O = assay: as above; assay type: biochemical, human; details: other: AKR1B1, pH 7.0, 25.0 °C
Protocol: as §1, §2

AKR1B10 [1] = molecular target: T1, AKR1B10 (Homo sapiens, UniProt O60218); details: substrate; cited from earlier work
T1 construct: made in house

AKR1B15 [2] = molecular target: T2, AKR1B15 (Homo sapiens, UniProt C9JRZ8); assay: Spectrophotometric activity assay (NADPH decrease at 340 nm), substrate kinetics; assay type: biochemical; details: for Km / k cat: substrate, spectrophotometric, 0.2 mM NADPH; for Km: 100 mM sodium phosphate pH 7.0, 25°C, <1 values only approximate; for k cat: pH 7.0, 25°C
T2 construct: made in house; host or cells: E. coli BL21(DE3), with or without chaperone plasmids pBB540/pBB542

AKR1B1 [3] = molecular target: T3, AKR1B1 (Homo sapiens, UniProt P15121); details: substrate, cited from earlier work; for Km: read-out: Km
T3 construct: made in house

AKR1B10 [4] = molecular target: T1, AKR1B10; assay: Spectrophotometric activity assay (NADPH decrease at 340 nm), substrate kinetics; assay type: biochemical; details: for k cat / Km: substrate, spectrophotometric; for Km: read-out: Km; for activity class: at saturating concentration of substrate for AKR1B15
AKR1B1 [5] = molecular target: T3, AKR1B1; assay: as above; assay type: biochemical; details: for activity class: at saturating concentration of substrate for AKR1B15
Protocol: as §1, §2

AKR1B15 [6] = molecular target: T2, AKR1B15; assay: Inhibition screening with D,L-glyceraldehyde as substrate; assay type: biochemical; details: for IC50: 6 mM D,L-glyceraldehyde as substrate, 0.1% DMSO
Protocol: as §1, §2

AKR1B1 [7] = molecular target: T3, AKR1B1; details: cited from earlier work
AKR1B10 [8] = molecular target: T1, AKR1B10; details: cited from earlier work
AKR1B10 [9] = molecular target: T1, AKR1B10; parameters: method as in PMID 18087047; details: HPLC-based method; cited from earlier work
AKR1B1 [10] = molecular target: T3, AKR1B1; parameters: method as in PMID 18087047; details: HPLC-based method; cited from earlier work
AKR1B15 [11] = molecular target: T2, AKR1B15; assay: HPLC enzymatic activity assay with retinaldehyde isomers; assay type: biochemical; details: HPLC-based method; for k cat: pH 7.4
Protocol: Activity assays with retinoids were carried out using an HPLC-based methodology. Briefly, retinaldehyde isomers were solubilized using glass tubes by a 10-min sonication at molar ratio 1:1 with fatty acid-free bovine serum albumin in 90 mM potassium phosphate, 40 mM potassium chloride, pH 7.4. The actual amount of solubilized retinoid was determined based on the corresponding molar absorption coefficient in aqueous solutions at the appropriate wavelength: ε400 = 29,500 M^−1·cm^−1 for all-trans-retinaldehyde and ε367 = 26,700 M^−1·cm^−1 for 9-cis-retinaldehyde. For retinol isomers, which were used as standards of the reaction product, their concentration was determined in hexane using ε325 = 51,770 M^−1·cm^−1 for all-trans-retinol and ε325 = 43,765 M^−1·cm^−1 for 9-cis-retinol. The reactions were started by the addition of cofactor and carried out for 15 min at 37°C in a final volume of 0.5 mL. With the aim to measure the steady-state enzymatic activity, the concentration of enzyme was kept from 25- to 100-fold lower than that of the substrate for all the enzymatic assays. The reactions were stopped by the addition of 1 mL of cold methanol and after two rounds of extraction with hexane, retinoids were analyzed by HPLC as previously described. All retinoid manipulations were performed under dim light.
as §2

T1 sequence (O60218 whole entry): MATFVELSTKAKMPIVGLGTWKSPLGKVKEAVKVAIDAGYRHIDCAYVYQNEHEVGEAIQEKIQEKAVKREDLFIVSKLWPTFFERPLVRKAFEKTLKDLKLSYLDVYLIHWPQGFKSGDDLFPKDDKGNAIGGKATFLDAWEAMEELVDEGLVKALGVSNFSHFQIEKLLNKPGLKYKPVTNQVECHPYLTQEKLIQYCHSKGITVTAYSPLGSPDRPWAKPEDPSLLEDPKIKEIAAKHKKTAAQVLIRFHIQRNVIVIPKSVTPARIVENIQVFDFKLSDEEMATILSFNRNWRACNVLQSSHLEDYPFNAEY
T2 sequence (C9JRZ8 whole entry): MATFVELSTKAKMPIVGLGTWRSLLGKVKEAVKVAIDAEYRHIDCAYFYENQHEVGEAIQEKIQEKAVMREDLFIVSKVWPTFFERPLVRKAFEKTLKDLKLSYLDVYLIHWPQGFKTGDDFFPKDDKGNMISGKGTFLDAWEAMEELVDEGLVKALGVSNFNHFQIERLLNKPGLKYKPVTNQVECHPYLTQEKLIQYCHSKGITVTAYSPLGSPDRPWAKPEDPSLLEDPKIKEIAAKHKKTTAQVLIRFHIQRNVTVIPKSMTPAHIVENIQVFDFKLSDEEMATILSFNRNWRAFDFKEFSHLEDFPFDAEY

k cat (AKR1B15 [2]) [s⁻¹]	Km (AKR1B15 [2]; read-out: Km) [µM]	Molecule	Km (AKR1B10 [1]) [µM]	k cat (min^−1) (AKR1B10 [1])	Km (AKR1B1 [3]) [µM]	k cat (min^−1) (AKR1B1 [3])	also measured
0.113	1.7	CCCCCC=CC(C)=O [3-nonen-2-one]	–	–	–	–	activity class (AKR1B10 [4]): LA (LA, low activity (≤ 10 mU/mg) was detected at saturating concentration of substrate for AKR1B15); activity class (AKR1B1 [5]): LA (LA, low activity (≤ 10 mU/mg) was detected at saturating concentration of substrate for AKR1B15)
0.0367	40	CC(=O)CC(C)=O [2,4-pentanedione]	–	–	–	–	k cat (AKR1B10 [4]): 0.143 s⁻¹; Km (AKR1B10 [4]): 58900 µM
0.158	< 1	CCCC(=O)C(C)=O [2,3-hexanedione]	51	79 ^b min^−1	17	49 ^b min^−1	–
0.15	2.9	O=Cc1cccnc1 [pyridine-3-aldehyde]	13	150 ^b min^−1	10	61 ^b min^−1	–
0.0867	2.2	CCCCCC(O)C=CC=O (stereo not drawn) [4-hydroxy-2-nonenal]	31	121 ^c min^−1	716	50 ^c min^−1	–
0.122	3.1	CCCCCC=O [hexanal]	112	142 ^b min^−1	5	28 ^b min^−1	–
0.188	5	CCC/C=C/C=O [trans-2-hexenal]	28	49 ^b min^−1	9	16 ^b min^−1	–
0.0735	365	O=C1C=CCCC1 [2-cyclohexen-1-one]	–	–	–	–	activity class (AKR1B10 [4]): LA (LA, low activity (≤ 10 mU/mg) was detected at saturating concentration of substrate for AKR1B15); activity class (AKR1B1 [5]): LA (LA, low activity (≤ 10 mU/mg) was detected at saturating concentration of substrate for AKR1B15)
0.0883	1300	CCC(=O)CC(=O)CC [3,5-heptanedione]	–	–	–	–	Km (AKR1B10 [4]): > 50000 µM

Further lines, the molecule ahead of its results:

Molecule	k cat (AKR1B15 [2]) [s⁻¹]	Km (AKR1B15 [2]; read-out: Km) [µM]	Km (AKR1B10 [1]) [µM]	k cat (min^−1) (AKR1B10 [1])	Km (AKR1B1 [3]) [µM]	k cat (min^−1) (AKR1B1 [3])	also measured
AKR1B1 (Homo sapiens)	–	–	–	–	–	–	Km (CCC(=O)CC(=O)CC): 12,000 μM; kcat (CCC(=O)CC(=O)CC): 0.433 s⁻¹; kcat/Km (CCC(=O)CC(=O)CC): 36.7 M⁻¹ s⁻¹; Km (CC(=O)CC(C)=O): 8,100 μM; kcat (CC(=O)CC(C)=O): 0.278 s⁻¹; kcat/Km (CC(=O)CC(C)=O): 36.7 M⁻¹ s⁻¹; Km (CC(C)=CCC/C(C)=C/C=O): 35 µM; kcat (CC(C)=CCC/C(C)=C/C=O): 1.13 s⁻¹; kcat/Km (CC(C)=CCC/C(C)=C/C=O): 29200 M⁻¹ s⁻¹
O=Cc1ccccc1 [benzaldehyde]	0.202	–	9.7	104 ^b min^−1	21	91 ^b min^−1	Km (AKR1B15 [2]): < 1 µM
O=C/C=C/c1ccccc1 [cinnamaldehyde]	0.222	< 1	–	–	–	–	k cat (AKR1B10 [4]): 4 s⁻¹; Km (AKR1B10 [4]): 34.7 µM; Km (AKR1B1 [5]; substrate, spectrophotometric): 31 µM; k cat (AKR1B1 [5]; substrate, spectrophotometric): 0.483 s⁻¹
Oc1c(F)c(F)c(-c2c(F)c(F)c(O)c(F)c2F)c(F)c1F [JF0064, 2,2’,3,3’,5,5’,6,6’-octafluoro-4,4’-biphenyldiol]	–	–	–	–	–	–	IC50 (AKR1B15 [6]): 0.034 ± 0.005 µM; IC50 (AKR1B1 [7]; AKR1B1, values in Table 3): < 10 µM; IC50 (AKR1B10 [8]; AKR1B10, values in Table 3): < 10 µM
C=CC(C)=O [3-buten-2-one]	0.137	21.3	–	–	–	–	activity class (AKR1B10 [4]): LA (LA, low activity (≤ 10 mU/mg) was detected at saturating concentration of substrate for AKR1B15); activity class (AKR1B1 [5]): LA (LA, low activity (≤ 10 mU/mg) was detected at saturating concentration of substrate for AKR1B15)
CC(/C=C1\SC(=S)N(CC(=O)O)C1=O)=C\c1ccccc1 [Epalrestat]	–	–	–	–	–	–	IC50 (AKR1B15 [6]): > 50 µM
C[C@H](CCC(=O)O)[C@H]1CC[C@H]2[C@@H]3CC[C@@H]4C[C@H](O)CC[C@]4(C)[C@H]3CC[C@]12C [Lithocholic acid]	–	–	–	–	–	–	IC50 (AKR1B15 [6]): 16.3 ± 7.6 µM; IC50 (AKR1B1 [7]; AKR1B1): 7.2 µM; IC50 (AKR1B10 [8]; AKR1B10): 0.12 µM; selectivity between AKR1B10 and AKR1B1 (AKR1B10 [8]; in words): more selective against AKR1B10
O=CC(O)CO (racemic) [D,L-glyceraldehyde]	0.178	880	6000	35 ^a min^−1	50	31 ^a min^−1	–
NC(=O)C1=CN([C@@H]2O[C@H](COP(=O)(O)OP(=O)(O)OC[C@H]3O[C@@H](n4cnc5c(N)ncnc54)[C@H](O)[C@@H]3O)[C@@H](O)[C@H]2O)C=CC1 [NADH]	–	–	–	–	–	–	enzymatic activity relative to that with NADPH (AKR1B15 [2]; 0.2 mM NADH): less than 5%
CC(C)=CCCC(C)=CC=O (mixture of isomers) [citral]	0.0917	1.5	–	–	–	–	k cat (AKR1B10 [4]): 0.583 s⁻¹; Km (AKR1B10 [4]): 4.5 µM
O=C1NC(=O)[C@@]2(CCOc3ccc(F)cc32)N1 [Sorbinil]	–	–	–	–	–	–	IC50 (AKR1B15 [6]): > 100 µM
CC(C)=CCCC(C)=CCCC(C)=CC=O [farnesal]	0.08	< 1	2.3	30 ^b min^−1	37	27 ^b min^−1	–
OC[C@H]1OC(O)[C@H](O)[C@@H](O)[C@@H]1O (stereo partly drawn) [glucose]	–	–	–	–	–	–	rate of reduction (AKR1B15 [2]; 200 mM glucose): 12 mU/mg; rate of reduction (AKR1B1 [5]; 200 mM glucose): 500 mU/mg
C=CC=O [acrolein]	0.147	36	110	116 ^c min^−1	884	11 ^c min^−1	–
CC1=C(CC(=O)O)c2cc(F)ccc2/C1=C\c1ccc([S+](C)[O-])cc1 (stereo not drawn) [Sulindac]	–	–	–	–	–	–	IC50 (AKR1B15 [6]): > 100 µM; IC50 (AKR1B1 [7]; AKR1B1, values in Table 3): < 10 µM; IC50 (AKR1B10 [8]; AKR1B10, values in Table 3): < 10 µM
CCC(C)=O [2-butanone]	0.175	780	–	–	–	–	activity class (AKR1B10 [4]): LA (LA, low activity (≤ 10 mU/mg) was detected at saturating concentration of substrate for AKR1B15); activity class (AKR1B1 [5]): LA (LA, low activity (≤ 10 mU/mg) was detected at saturating concentration of substrate for AKR1B15)
CC1(C)CC[C@]2(C(=O)O)CC[C@]3(C)C(=CC[C@@H]4[C@@]5(C)CC[C@H](O)C(C)(C)[C@@H]5CC[C@]43C)[C@@H]2C1 [Oleanolic acid]	–	–	–	–	–	–	IC50 (AKR1B15 [6]): > 100 µM
CCCCCCCCCCCC(=O)N(C)CC(=O)[O-].[Na+] [Sarkosyl, sodium N-lauroylsarcosinate]	–	–	–	–	–	–	inhibition model (AKR1B15 [6]; data not shown): non-competitive
CC1=C(/C=C/C(C)=C\C=C\C(C)=C\C=O)C(C)(C)CCC1 [9-cis-retinaldehyde]	–	–	–	–	–	–	Km (AKR1B10 [9]): 0.7 ± 0.1 µM; k cat (AKR1B10 [9]): 0.015 ± 0.0017 s⁻¹; Km (AKR1B1 [10]): 0.4 ± 0.1 µM; k cat (AKR1B1 [10]): 0.012 ± 0.0033 s⁻¹; k cat (AKR1B15 [11]; 37°C): 0.0633 ± 0.0033 s⁻¹; Km (AKR1B15 [11]; 37°C, pH 7.4, read-out: Km): 0.16 ± 0.03 µM; Km (AKR1B15 [11]; read-out: Km value): 0.16 µM
CC(=O)C(C)=O [2,3-butanedione]	0.177	< 1	540	260 ^d min^−1	110	23 ^d min^−1	–
CC1=C(/C=C/C(C)=C/C=C/C(C)=C/C=O)C(C)(C)CCC1 [All-trans-retinaldehyde]	–	–	–	–	–	–	Km (AKR1B10 [9]): 0.6 ± 0.1 µM; k cat (AKR1B10 [9]): 0.45 ± 0.017 s⁻¹; Km (AKR1B1 [10]): 1.1 ± 0.1 µM; k cat (AKR1B1 [10]): 0.015 ± 0.0017 s⁻¹; k cat (AKR1B15 [11]; 37°C): 0.09 ± 0.0083 s⁻¹; Km (AKR1B15 [11]; 37°C, pH 7.4, read-out: Km): 1 ± 0.3 µM
